Counter-ions that a name gives are not always drawn.
tested on: MTT (mouse pheochromocytoma); test: IC50 of cell viability (ATP content); conditions: (24 or 48 h)
Method in brief: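 After overnight culture at 37°C, 5% CO2 in white 1536-well plates, MTT mouse pheochromocytoma cells were given 23 nl of library compound in DMSO by pintool across 8 concentrations, spanning final 0.5 nM to 46 µM. Following 24 or 48 hrs, CellTiter-Glo luminescence was read after 15 minutes and normalised against positive-control (100%) and DMSO (0%) wells. A four-parameter logistic model provided the IC50.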

| IC50 of cell viability [µM] | SMILES |
| --- | --- |
| > 46 | N[S+](=O)([O-])c1cc2c(cc1C(F)(F)F)NCN[S+]2(=O)[O-] [Hydroflumethiazide] |
| > 46 | NC(=O)OC[C@H](O)COc1ccc(Cl)cc1 [Chlorphensin carbamate] |
| > 46 | O=C(Nc1ccc(/C=C/c2ccc(NC(=O)c3cc([S+](=O)([O-])O)c4cccnc4c3O)cc2[S+](=O)([O-])O)c([S+](=O)([O-])O)c1)c1cc([S+](=O)([O-])O)c2cccnc2c1O [Ubistatin A] |
| > 46 | NC(=O)NS(=O)(=O)c1ccc(N)cc1 [SULFACARBAMIDUM] |
| > 46 | C#CCN(C)Cc1ccccc1 [Pargyline hydrochloride] |
| > 46 | OCC1(CO)COC(C(Cl)(Cl)Cl)OC1 [Penthrichloral] |
| > 46 | CCCCc1nc(Cl)c(CO)n1Cc1ccc(-c2ccccc2-c2nnn[nH]2)cc1 [LOSARTAN] |
| > 46 | CCN(CC)C(=O)Nc1ccc(OC[C@H](O)CNC(C)(C)C)c(C(C)=O)c1 [CELIPROLOL HYDROCHLORIDE] |
| > 46 | CC(=O)Oc1cc2c(s1)CCN(C(C(=O)C1CC1)c1ccccc1F)C2 (stereo unspecified) [Prasugrel Hydrochloride] |
| > 46 | CCCOC(=O)c1ccccc1O [PROPYL SALICYLATE] |
| > 46 | COc1ccc2cc1Oc1cc3c(cc1OC)CC[N+](C)(C)C3Cc1ccc(cc1)Oc1c(OC)c(OC)cc3c1C(C2)[N+](C)(C)CC3 (stereo unspecified) [METOCURINE IODIDE] |
| > 46 | CC12CCC3c4ccc(O)cc4CCC3C1CCC2=O (stereo unspecified) [oestrone] |
| > 46 | CC(C)Cn1cnc2c1c(=O)n(C)c(=O)n2C [ISBUFYLLINUM] |
| > 46 | C=CCN1C(=O)C(CC(C)C)NC1=S (stereo unspecified) [Albutoin] |
| > 46 | CCCc1c2oc(C(=O)O)cc(=O)c2cc2c(=O)cc(C(=O)O)n(CC)c12 [Nedocromil] |
| > 46 | CC(=O)[O-].C[N+](C)(C)CCO [Cholin acetate] |
| > 46 | NCCCC(O)(P(=O)(O)O)P(=O)(O)O [Alendronate sodium] |
| > 46 | CCCCCCCCCCCCCCCCO [CETYL ALCOHOL] |
| > 46 | C[C@H](C(=O)O)c1ccc2c(c1)CC(=O)c1ccccc1S2 [Zaltoprofen] |
| > 46 | O=C1[O][Bi]([OH])[O]c2ccccc21 [Bismuth subsalicylate] |
| > 46 | CCC(=O)[C@@]1(C)[C@H](C)C[C@@H]2[C@@H]3CC\C4=C\C(=O)\C=C/[C@@]4(C)[C@H]3[C@H](O)C[C@@]12C [Rimexolone] |

| IC50 of cell viability [µM] | SMILES |
| --- | --- |
| > 46 | CC(=O)Nc1nnc([S+](N)(=O)[O-])s1 [Acetazolamide] |
| > 46 | CC(C)(Oc1ccc(CCNC(=O)c2ccc(Cl)cc2)cc1)C(=O)O [Bezafibrate] |
| > 46 | Cl.Cn1ccc2cc3c(cc21)CCN3C(=O)Nc1cccnc1 |
| > 46 | OC[C@@H](O)[C@@H](O)[C@H](O)[C@H](O)CO [D-Mannitol] |
| > 46 | CN1CCN(CC1)C/2=N/C3=CC=CC=C3NC4=C2C=C(C)S4 [olanzapine] |
| > 46 | O=C(O)CCC(=O)O [SUCCINIC ACID] |
| > 46 | CN1\C(=C(\O)C2=C(C=CC=C2)[S+]1([O-])=O)C(=O)NC3=NOC(=C3)C [ISOXICAM] |
| > 46 | COc1cc2c(c(OC)c1OC)-c1c(cc3c(c1OC)OCO3)CC(C)C(C)(O)C2 (stereo unspecified) [Gomisin A] |
| > 46 | N[S+]([O-])(=O)C1=C(Cl)C=C2\N=C/N[S+]([O-])(=O)C2=C1 [Chlorothiazide] |
| > 46 | Cl.Nc1c2c(nc3c1CCC3)CCCC2.O [IPIDACRINE HYDROCHLORIDE HYDRATE] |
| > 46 | CC(=O)OC[C@H]1O[C@@H](O[C@H]2[C@H](O)[C@@H](OC(=O)c3ccccc3C(=O)O)[C@H](O)O[C@@H]2COC(C)=O)[C@H](O)[C@@H](OC(=O)c2ccccc2C(=O)O)[C@@H]1O [Cellulose Acetate Phthalate] |
| > 46 | C[N+](C)(CCOc1ccccc1)Cc1cccs1.O=S([O-])Oc1ccc(Cl)cc1 [N,N-Dimethyl-N-2-phenoxyethyl-N-2 Äô-thenylammoniu ...] |
| > 46 | CCN(CC)CCOc1ccc2nc(N(C)C)sc2c1 [DIMAZOLE DIHYDROCHLORIDE] |
| > 46 | O=C(c1ccc(OCCN2CCCCC2)cc1)c1c(-c2ccc(O)cc2)sc2cc(O)ccc12 [Raloxifene hydrochloride] |
| > 46 | C=C1NC(=O)c2cc(CN(C)c3ccc(C(=O)N[C@@H](CCC(=O)O)C(=O)O)s3)ccc2N1 [RALTITREXED] |
| > 46 | Cc1nnc(SCC2=C(C(=O)O)N3C(=O)[C@@H](NC(=O)Cn4cnnn4)[C@H]3SC2)s1 [Cefazolin] |
| > 46 | O=C1N(c2ccccc2)c2ccccc2C1(Cc1ccncc1)Cc1ccncc1 [Linopirdine dihydrochloride] |
| > 46 | Cc1c(C)n(Cc2ccccc2)c2ccc(C(=O)OCCN(C)C)cc12 [Indocate] |
| > 46 | CN(C)CCC(c1ccc(Cl)cc1)c1ccccn1 (stereo unspecified) [dexchlorpheniramine] |
| > 46 | COC(=O)CC[C@H](N)C(=O)O [LEUCIGLUMERUM] |
| > 46 | CC(=O)c1ccc2c(c1)N(CCCN(C)C)c1ccccc1S2 [Acetopromazine maleate salt] |

| SMILES | IC50 of cell viability [µM] |
| --- | --- |
| C1CN(P2(N3CC3)=NP(N3CC3)(N3CC3)=NP(N3CC3)(N3CC3)=N2)CCO1 (stereo unspecified) [Fotretamine] | > 46 |
| CNC(C)Cc1ccccc1OC (stereo unspecified) [Methoxyphenamine] | > 46 |
| O=C1CN=C(c2ccccc2)c2cc([N+](=O)[O-])ccc2N1 [nitrazepam] | > 46 |
| COC/1=N/N(CS[P](=S)(OC)OC)C(=O)S1 [Methidathion] | > 46 |
| COP(=S)(OC)Oc1ccc([S+](=O)([O-])N(C)C)cc1 [FAMPHUR] | > 46 |
| Cc1cc(O)ccc1Cl [p-Chloro-m-cresol] | > 46 |
| O=C(O)c1ccccc1O.Oc1cccc2cccnc12 [8-quinolinol and salicylic acid] | > 46 |
| C1\C=C/C2C\3CC(\C=C3)C12 (stereo unspecified) [Dicyclopentadiene] | > 46 |
| C[C@@H]1O[C@@H](O[C@H]\2CC[C@]\3(C)[C@@H]4CC[C@]5(C)[C@@H](CC[C@@]5(O)[C@H]4CCC3=C2)C/6=C/OC(=O)/C=C6)[C@H](O)[C@H](O)[C@@H]1O [Proscillaridin A] | > 46 |
